Measured values taken from patent US10131652B2, “Pyrimidinyloxy benzene derivatives as herbicides” (E. I. DU PONT DE NEMOURS AND COMPANY, priority 2014, dated 2018).

Columns and labels:
Type in all cases: in vivo
[1] = system: barnyardgrass (Echinochloa crus-galli); test: Test B pre-/postemergence plant response
How it was run: (§1)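 Steps: plant seeds in loam soil–sand mix; spray soil preemergence, and in parallel spray 2–10 cm one- to two-leaf plants postemergence; hold ~10 days in greenhouse; visually rate injury against untreated controls (0 = no effect, 100 = complete control).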

corn (Zea mays) [2] = test: Test B pre-/postemergence plant response
How it was run: as §1

[3] = system: wheat (Triticum aestivum); test: Test B pre-/postemergence plant response
How it was run: as §1

[4] = system: pigweed (Amaranthus retroflexus); test: Test B pre-/postemergence plant response
How it was run: as §1

[5] = system: giant foxtail (Setaria faberii); test: Test B pre-/postemergence plant response
How it was run: as §1

[6] = system: ragweed (common ragweed, Ambrosia elatior); test: Test D pre-/postemergence plant response
How it was run: (§2)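 Two application timings were run together: preemergence onto seeded loam–sand pots, and postemergence onto 1- to 4-leaf plants (2 to 18 cm) in peat/vermiculite medium with starter nutrients. Formulation was a non-phytotoxic solvent with surfactant. Ratings, 0 to 100, were made visually versus controls after 13 to 15 greenhouse days.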

[7] = system: large (Lg) crabgrass (Digitaria sanguinalis); test: Test D pre-/postemergence plant response
How it was run: as §2

[8] = system: winter wheat (Triticum aestivum); test: Test D pre-/postemergence plant response
How it was run: as §2

[9] = system: Italian ryegrass (Lolium multiflorum); test: Test D pre-/postemergence plant response
How it was run: as §2

[10] = system: lambsquarters (Chenopodium album); test: Test D pre-/postemergence plant response
How it was run: as §2

[11] = system: waterhemp (common waterhemp, Amaranthus rudis); test: Test D pre-/postemergence plant response
How it was run: as §2

corn (Zea mays) [12] = test: Test D pre-/postemergence plant response
How it was run: as §2

[13] = system: yellow nutsedge (Cyperus esculentus); test: Test D pre-/postemergence plant response
How it was run: as §2

soybean (Glycine max) = test: Test D pre-/postemergence plant response
How it was run: as §2

[14] = system: galium (catchweed bedstraw, Galium aparine); test: Test D pre-/postemergence plant response
How it was run: as §2

[15] = system: morningglory (Ipomoea coccinea); test: Test D pre-/postemergence plant response
How it was run: as §2

[16] = 125 g ai/ha, postemergence, 0 to 100 scale, 0 no effect, 100 complete control
[17] = Postemergence, 500 g ai/ha, 0 to 100 scale (0 no effect, 100 complete control)
[18] = Preemergence, 125 g ai/ha, 0 to 100 scale (0 no effect, 100 complete control)
[19] = Preemergence, 500 g ai/ha, 0 to 100 scale where 0 is no effect and 100 is complete control
[20] = Postemergence, 31 g ai/ha, scale 0 to 100 (0 no effect, 100 complete control)
[21] = Postemergence, 62 g ai/ha, scale 0 to 100, 0 no effect, 100 complete control
[22] = Postemergence, 125 g ai/ha, scale 0 to 100, 0 no effect, 100 complete control
[23] = Preemergence, 16 g ai/ha, scale 0 to 100 (0 no effect, 100 complete control)
[24] = Preemergence, 31 g ai/ha, scale 0 to 100 (0 no effect, 100 complete control)
[25] = Preemergence, 62 g ai/ha, scale 0 to 100 (0 no effect, 100 complete control)

FC(F)c1cc(-c2c(Cl)cccc2Oc2ncc(Cl)cn2)no1 [Compound 179]
65: Plant response rating, Crabgrass, Large [7, 24] | Morningglory plant response rating [15, 20]
60: Plant response rating, Ragweed [6, 22] | Plant response rating (scale 0 to 100), Ragweed ([6]; Preemergence, 125 g ai/ha) | Plant response rating (scale 0 to 100), Waterhemp ([11]; Postemergence, 16 g ai/ha)
30: Plant response rating (scale 0 to 100), Ragweed ([6]; Postemergence, 16 g ai/ha) | Plant response rating, Ragweed [6, 24] | Wheat plant response rating [8, 21] | Plant response rating, Soybean (soybean (Glycine max); [25]) | Plant response rating (scale 0 to 100), Morningglory ([15]; Postemergence, 16 g ai/ha)
80: Plant response rating, Barnyardgrass [1, 17] | Plant response rating, Foxtail, Giant [5, 17] | Foxtail, Giant plant response rating [5, 18] | Plant response rating (scale 0 to 100), Ryegrass, Italian ([9]; Preemergence, 125 g ai/ha) | Galium plant response rating [14, 20]
10: Plant response rating, Barnyardgrass [1, 16] | Barnyardgrass plant response rating [1, 18] | Plant response rating, Corn (corn (Zea mays) [2]; [16]) | Plant response rating, Crabgrass, Large [7, 23] | Wheat plant response rating [8, 20] | Corn plant response rating (corn (Zea mays) [12]; [20]) | Plant response rating, Corn (corn (Zea mays) [12]; [21])
40: Plant response rating, Corn (corn (Zea mays) [2]; [17]) | Plant response rating, Wheat [3, 16] | Plant response rating, Foxtail, Giant [5, 16] | Plant response rating, Ragweed [6, 25]
45: Soybean plant response rating (soybean (Glycine max); [20]) | Plant response rating (scale 0 to 100), Soybean (soybean (Glycine max); Preemergence, 125 g ai/ha)
25: Ragweed plant response rating [6, 20] | Plant response rating, Ragweed [6, 23] | Plant response rating (scale 0 to 100), Nutsedge, Yellow ([13]; Preemergence, 125 g ai/ha) | Plant response rating (scale 0 to 100), Soybean (soybean (Glycine max); Postemergence, 16 g ai/ha)
20: Plant response rating, Ryegrass, Italian [9, 22]
95: Waterhemp plant response rating [11, 21]
50: Ragweed plant response rating [6, 21]
98: Plant response rating, Waterhemp [11, 22] | Plant response rating (scale 0 to 100), Galium ([14]; Preemergence, 125 g ai/ha)
75: Plant response rating, Crabgrass, Large [7, 25] | Lambsquarters plant response rating [10, 20] | Lambsquarters plant response rating [10, 21] | Plant response rating, Lambsquarters [10, 23] | Plant response rating, Waterhemp [11, 23] | Plant response rating, Galium [14, 22]
35: Plant response rating, Wheat [8, 22] | Plant response rating (scale 0 to 100), Wheat ([8]; Preemergence, 125 g ai/ha)
5: Plant response rating (scale 0 to 100), Crabgrass, Large ([7]; Postemergence, 16 g ai/ha) | Crabgrass, Large plant response rating [7, 20] | Plant response rating, Crabgrass, Large [7, 21] | Plant response rating, Crabgrass, Large [7, 22] | Plant response rating (scale 0 to 100), Wheat ([8]; Postemergence, 16 g ai/ha) | Ryegrass, Italian plant response rating [9, 20] | Ryegrass, Italian plant response rating [9, 21] | Plant response rating, Ryegrass, Italian [9, 24] | Plant response rating (scale 0 to 100), Corn (corn (Zea mays) [12]; Postemergence, 16 g ai/ha) | Plant response rating (scale 0 to 100), Corn (corn (Zea mays) [12]; Preemergence, 125 g ai/ha) | Plant response rating (scale 0 to 100), Nutsedge, Yellow ([13]; Postemergence, 16 g ai/ha) | Nutsedge, Yellow plant response rating [13, 20] | Nutsedge, Yellow plant response rating [13, 21] | Plant response rating, Nutsedge, Yellow [13, 22]
15: Plant response rating, Ryegrass, Italian [9, 25] | Plant response rating, Corn (corn (Zea mays) [12]; [22]) | Plant response rating (scale 0 to 100), Morningglory ([15]; Preemergence, 125 g ai/ha)
0: Plant response rating, Wheat [8, 23] | Plant response rating, Wheat [8, 24] | Plant response rating, Wheat [8, 25] | Plant response rating (scale 0 to 100), Ryegrass, Italian ([9]; Postemergence, 16 g ai/ha) | Plant response rating, Ryegrass, Italian [9, 23] | Plant response rating, Corn (corn (Zea mays) [12]; [23]) | Plant response rating, Corn (corn (Zea mays) [12]; [24]) | Plant response rating, Corn (corn (Zea mays) [12]; [25]) | Plant response rating, Nutsedge, Yellow [13, 23] | Plant response rating, Nutsedge, Yellow [13, 24] | Plant response rating, Nutsedge, Yellow [13, 25] | Plant response rating, Soybean (soybean (Glycine max); [23]) | Plant response rating, Soybean (soybean (Glycine max); [24]) | Plant response rating, Morningglory [15, 23] | Plant response rating, Morningglory [15, 24] | Plant response rating, Morningglory [15, 25]
70: Plant response rating (scale 0 to 100), Lambsquarters ([10]; Postemergence, 16 g ai/ha) | Soybean plant response rating (soybean (Glycine max); [21]) | Plant response rating, Soybean (soybean (Glycine max); [22]) | Plant response rating (scale 0 to 100), Galium ([14]; Postemergence, 16 g ai/ha) | Plant response rating, Galium [14, 21]
100: Plant response rating, Pigweed [4, 16] | Plant response rating, Pigweed [4, 17] | Pigweed plant response rating [4, 18] | Plant response rating, Pigweed [4, 19] | Plant response rating, Foxtail, Giant [5, 19] | Plant response rating (scale 0 to 100), Crabgrass, Large ([7]; Preemergence, 125 g ai/ha) | Plant response rating, Lambsquarters [10, 22] | Plant response rating (scale 0 to 100), Lambsquarters ([10]; Preemergence, 125 g ai/ha) | Plant response rating, Lambsquarters [10, 24] | Plant response rating, Lambsquarters [10, 25] | Plant response rating (scale 0 to 100), Waterhemp ([11]; Preemergence, 125 g ai/ha)
85: Morningglory plant response rating [15, 21]
90: Plant response rating, Barnyardgrass [1, 19] | Plant response rating, Wheat [3, 17] | Waterhemp plant response rating [11, 20] | Plant response rating, Waterhemp [11, 24] | Plant response rating, Waterhemp [11, 25] | Plant response rating, Galium [14, 23] | Plant response rating, Galium [14, 24] | Plant response rating, Galium [14, 25] | Plant response rating, Morningglory [15, 22]
